From article PMC12567909 (Veterinary Sciences, 2025)
Where two headings read alike, the source gives them in different places.

Legend:
[1] = target: T1, pUL15N (N-terminus domain of DPV pUL15) (anatid alphaherpesvirus 1, UniProt C6ZD26); details: 1 mM ATP, 2 µM protein, 2 mM MgCl2, 50 mM NaCl, pH 7.5, 37 °C
T1 construct: gene UL15

[2] = target: T2, DPV pUL15FL (full-length pUL15) (anatid alphaherpesvirus 1, UniProt C6ZD26); format: biochemical
T2 construct: gene UL15

Row | Structure (SMILES) | malachite green phosphate release [1] | malachite green phosphate release ([2]; 1 mM ATP, 2 mM MgCl2, 50 mM NaCl, pH 7.5, 37 °C) | malachite green phosphate release [2]
1 | Nc1ncnc2c1ncn2[C@@H]1O[C@H](COP(=O)(O)OP(=O)(O)OP(=O)(O)O)[C@@H](O)[C@H]1O [ATP] | the pUL15N exhibited ATPase activity like pUL15FL, whereas pUL15C did not | DPV pUL15FL hydrolyzes both ATP and ADP | 
2 | Nc1ncnc2c1ncn2[C@@H]1O[C@H](COP(=O)(O)OP(=O)(O)O)[C@@H](O)[C@H]1O [ADP] |  |  | DPV pUL15FL hydrolyzes both ATP and ADP
